9 compounds from ChEMBL document CHEMBL1201862, “PubChem BioAssay data set” (2004) can be followed below.

The structures appear in SMILES notation.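 Step 1: Grow cells in 96-well plates. Step 2: Expose to compound for 48 hours at 5 concentrations. Step 3: Interpolate endpoints linearly; if unreached, use highest concentration. GI50 is the concentration that inhibits growth by half.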 Activity calls are given as the source filed them. Cut-off read from the data, not from the text of the source: active = GI50 up to about 1.1 µM and inactive = higher. A value given as a limit tells only on which side of the number the result lay.

Some test systems named below: XF498; SNB-19; MOLT-4; SK-MEL-5; CCRF-CEM; K562; KM12; NCI-H226; OVCAR-5; ACHN; HCT-116; DMS-273; CAKI-1; NCI-H23; HT-29; NCI-H522; SF-539.
Assay in all cases: inhibition of tumour cell growth, NCI panel, 48 h

`CC(=O)C1CC=C(C)CC1` (stereo unspecified): the GI50 in the experiment on XF498, in the experiment on SNB-19, with MOLT-4, with SK-MEL-5, with CCRF-CEM and in the experiment on K562 was > 100 µM (inactive) each time. Also, the GI50 with KM12, in the experiment with NCI-H226, in the experiment with OVCAR-5, with ACHN, with HCT-116 and with DMS-273 was > 100 µM (inactive) each time. The GI50 with CAKI-1, in the experiment with NCI-H23, with HT-29, in the experiment on NCI-H522 and in the experiment with SF-539 was > 100 µM (inactive) in each case.

With `Clc1ccccc1C(n1cc(Br)cn1)n1cc(Br)cn1`, the GI50 in the experiment on XF498 is 17.5 µM (inactive); in the experiment with SNB-19 it was 27.4 µM (inactive); in the experiment with MOLT-4 it was 14.2 µM (inactive); in the experiment with SK-MEL-5, 11 µM (inactive); in the experiment on CCRF-CEM, 20.9 µM (inactive); in the experiment with K562, 19.1 µM (inactive). The GI50 in the experiment with KM12 was 15.3 µM (inactive); in the experiment on NCI-H226 it was > 10 µM (inactive); with OVCAR-5 it was 11.4 µM (inactive); in the experiment on ACHN, 16.5 µM (inactive); in the experiment with HCT-116, 15 µM (inactive); in the experiment on DMS-273 it was 17.8 µM (inactive). The GI50 was 19 µM (inactive) in the experiment on CAKI-1; 23.1 µM (inactive) in the experiment on NCI-H23; 13.8 µM (inactive) in the experiment with HT-29; 71.9 µM (inactive) in the experiment on NCI-H522; > 10 µM (inactive) in the experiment on SF-539.

Regarding `CCC/C=C\C=C\C1(NS(=O)(=O)c2ccc(C)cc2)CCC(C(C)(C)C)CC1` (stereo unspecified), the GI50 was 16.7 µM (inactive) in the experiment on XF498; 35.5 µM (inactive) with SNB-19; 7.1 µM (inactive) with MOLT-4; 16.7 µM (inactive) in the experiment with SK-MEL-5; 9.1 µM (inactive) with CCRF-CEM; 12.5 µM (inactive) in the experiment with K562. Moreover, the GI50 in the experiment on KM12 was 16.5 µM (inactive); with NCI-H226 it was 20.5 µM (inactive); in the experiment on OVCAR-5, 21.5 µM (inactive); in the experiment with ACHN, 18.2 µM (inactive); with HCT-116 it was 15.4 µM (inactive); in the experiment on DMS-273, 13.4 µM (inactive). In addition, the GI50 in the experiment with CAKI-1 was 19.6 µM (inactive); in the experiment with NCI-H23, 14.1 µM (inactive); in the experiment on HT-29, 15.5 µM (inactive); with NCI-H522, 3.2 µM (inactive); in the experiment on SF-539, 35.7 µM (inactive).

For the compound `Cc1cccc(NC(=O)CC#N)c1Cl`, the GI50 in the experiment with XF498, with SNB-19, in the experiment on MOLT-4, in the experiment with CCRF-CEM, with K562 and in the experiment on KM12 was > 100 µM (inactive) in each case. The GI50 with NCI-H226, in the experiment on ACHN, in the experiment with HCT-116, in the experiment with DMS-273, with CAKI-1 and in the experiment with NCI-H23 was > 100 µM (inactive) in each case. Besides, the GI50 in the experiment on HT-29, in the experiment with NCI-H522 and in the experiment on SF-539 was > 100 µM (inactive) throughout.

Consider `CC(=O)O[C@]1(C)OC(=O)[C@@H](C)N1[N+](=O)[O-]`, for which the GI50 is < 0.01 µM (active) in the experiment with XF498; > 100 µM (inactive) with SNB-19; 45.9 µM (inactive) in the experiment with MOLT-4; > 100 µM (inactive) in the experiment on SK-MEL-5; 72.8 µM (inactive) with CCRF-CEM; > 100 µM (inactive) in the experiment with K562. The GI50 with KM12 is > 100 µM (inactive); in the experiment with NCI-H226 it was > 100 µM (inactive); in the experiment with OVCAR-5, > 100 µM (inactive); with ACHN, 60 µM (inactive); in the experiment with HCT-116 it was > 100 µM (inactive); in the experiment on DMS-273, 96.6 µM (inactive). The GI50 in the experiment on NCI-H23, in the experiment on HT-29, in the experiment with NCI-H522 and in the experiment with SF-539 was > 100 µM (inactive) throughout.

In the case of `O=C1Cc2ccccc2CCc2ccsc21`, the GI50 with XF498, with SNB-19, in the experiment with MOLT-4, with SK-MEL-5, with CCRF-CEM and with K562 was > 100 µM (inactive) in each case. The GI50 in the experiment with KM12 was > 100 µM (inactive); in the experiment on NCI-H226, > 100 µM (inactive); with OVCAR-5, 31.3 µM (inactive); in the experiment on HCT-116, > 100 µM (inactive); with DMS-273 it was > 100 µM (inactive); in the experiment on CAKI-1, > 100 µM (inactive). Also, the GI50 in the experiment on NCI-H23, in the experiment on HT-29, in the experiment on NCI-H522 and with SF-539 was > 100 µM (inactive) in each case.

Consider `Cc1ccc(S(=O)(=O)CC(=O)CC(=O)C(=O)Nc2cccc(C(F)(F)F)c2)cc1`, for which the GI50 in the experiment with XF498, with SNB-19, in the experiment on MOLT-4, in the experiment on SK-MEL-5, in the experiment with CCRF-CEM and with K562 was > 100 µM (inactive) in each case. In addition, the GI50 was > 100 µM (inactive) in the experiment with KM12; > 100 µM (inactive) in the experiment on NCI-H226; > 100 µM (inactive) with ACHN; 44.4 µM (inactive) in the experiment with HCT-116; > 100 µM (inactive) with DMS-273; > 100 µM (inactive) with CAKI-1. In addition, the GI50 was > 100 µM (inactive) in the experiment with NCI-H23, 55.3 µM (inactive) with HT-29, > 100 µM (inactive) in the experiment with NCI-H522 and > 100 µM (inactive) in the experiment with SF-539.

`Cc1cc(C)nc(NS(=O)(=O)c2ccc(NC(=O)c3cccc4c(N)c5ccccc5nc34)cc2)n1`: the GI50 is > 100 µM (inactive) in the experiment with XF498; > 100 µM (inactive) with SNB-19; 35 µM (inactive) in the experiment with MOLT-4; > 100 µM (inactive) in the experiment with SK-MEL-5; 26.2 µM (inactive) in the experiment on CCRF-CEM; 63.8 µM (inactive) with K562. Also, the GI50 is 40.6 µM (inactive) with KM12; > 100 µM (inactive) in the experiment on NCI-H226; > 100 µM (inactive) in the experiment with OVCAR-5; > 100 µM (inactive) in the experiment on ACHN; 90.6 µM (inactive) with HCT-116; > 100 µM (inactive) in the experiment on DMS-273. For the same compound, the GI50 is > 100 µM (inactive) with CAKI-1, > 100 µM (inactive) in the experiment on NCI-H23, > 100 µM (inactive) in the experiment with NCI-H522 and 31.6 µM (inactive) with SF-539.

For the compound `CC1=C(C(=O)Nc2ccccc2C)C(c2ccc([N+](=O)[O-])cc2)C(C(=O)Nc2ccccc2C)=C(C)N1`, the GI50 with XF498 was 40.3 µM (inactive); in the experiment on SNB-19 it was 22.8 µM (inactive); in the experiment with MOLT-4 it was 25.3 µM (inactive); with SK-MEL-5, 11.3 µM (inactive); in the experiment with CCRF-CEM, 27.2 µM (inactive); with K562 it was 40.1 µM (inactive). The GI50 is 39.3 µM (inactive) with KM12; > 100 µM (inactive) in the experiment with NCI-H226; > 100 µM (inactive) with OVCAR-5; 30.2 µM (inactive) with ACHN; 43.4 µM (inactive) with DMS-273; 36.6 µM (inactive) with CAKI-1. Besides, the GI50 was 37.5 µM (inactive) in the experiment with NCI-H23, 44.9 µM (inactive) with HT-29, 32 µM (inactive) in the experiment with NCI-H522 and 53.6 µM (inactive) with SF-539.
